Data published in US20200247815A1, “PYRAZOLYL-CONTAINING TRICYCLIC DERIVATIVE, PREPARATION METHOD THEREFOR AND USE THEREOF” (Jiangsu Hansoh Pharmaceutical Group Co., Ltd., priority 2017, published 2020).

Tests used:
ERK-1 kinase = target: T1, ERK-1 kinase (Homo sapiens, UniProt P27361); experiment: Inhibition of ERK-1 kinase activity (LANCE Ultra TR-FRET); type: biochemical; conditions: ERK1 enzyme 0.4 nM, ATP 38.15 μM
T1 construct: purchased Invitrogen PV3311
Experimental: (§1) The object of this test example is to determine the inhibition effect of the compound on ERK-1 kinase activity. In vitro ERK-1 kinase analysis was carried out by using LANCE Ultra (Perkin Elmer) method. The reaction (reaction system 10 μL) was conducted by adding 2.5 μL of test compound/DMSO (final 4%, V/V, diluted to 10 concentrations (400 nM to 0.02 nM) using a 1:3 dilution scheme), 5 μL of a mixed solution of ERK1 enzyme (Invitrogen, # PV3311, final concentration: 0.4 nM) and substrate Ulight-MBP peptide (Perkin Elmer, # TRF0109-M, final concentration: 0.5 μM) formulated with a kinase buffer (50 mM Hepes pH 7.4, 10 mM MgCl2, 1 mM EGTA, 0.01% Triton X-100, 2 mM DTT) and 2.5 μL of ATP solution (Invitrogen, # PV3227, final concentration: 38.15 μM) formulated with the same buffer successively to a 384-well plate (Perkin Elmer OPTIPLATE™) and mixing well. The reaction mixture was incubated at room temperature for 60 minutes. The reaction was stopped by adding 1× LANCE Detection buffer (PerkinElmer # CR97-100) diluted with ultra-pure water, mM EDTA (Invitrogen #15575038) and 1 nM Eu-anti-p-MBP (PerkinElmer # TRF0201-M) antibody in 10 μL/well. The plate was incubated at room temperature for 60 minutes. Excitation reading was performed on Synergy H1 Hybird Reader, H1MFD (Biotek) with an excitation wavelength of 320 nm. TR-FRET rate was calculated by dividing the acceptor emission signal (signal value at 665 nM) by the Eu donor emission signal (signal value at 615 nM). The inhibition TR-FRET rate of the well treated by the compound was calculated relative to the Max signal (DMSO control) and Min signal (no enzyme added) control wells on the plate {% inhibition rate=100−[(test compound−Min average)]/(Max average−Min average)×100}. The 10 concentrations of the compound after 4-fold dilution of the reaction system were 100 nM to 0.005 nM. Abs_IC50 value was calculated by using GraphPad prism fits percentage inhibition rate and ten-point concentration data in a 4-parameter non-linear logic formula.

[1] = system: pancreatic cancer tumor cell Mia Paca 2; experiment: Inhibition of tumor cell proliferation (CellTiter-Glo); type: cell-based; conditions: Homo sapiens, Miapaca-2 cell, 3-7 days
Experimental: The object of this test example is to determine the inhibition effect of the present compound on tumor cell proliferation activity. The inhibition activity of the compound on tumor cell proliferation was determined by CellTiter-Glo method, and the half inhibitory concentration IC50 of the compound for inhibiting cell proliferation activity was obtained, 50-100 μL of tumor cell suspension was inoculated in a 96-well cell culture plate with a density of 1˜5*10^4 cells/ml. The plate was incubated in an incubator for 16˜24 hours (37° C., 5% CO2). Solutions of test compounds at different concentrations obtained by gradient dilution were added to the cells in the plate. The plate was incubated in an incubator for 3-7 days (37° C., 5% CO2), 50˜100 μL of CellTiter-Glo reagent was added to each well. The plate was shaked for 10 minutes, and left to stand at room temperature for 10 minutes. The value of the chemiluminescence signal was determined by a microplate reader. The inhibition rate was calculated from the value of the chemiluminescence signal. IC50 of the compound was obtained by curve fitting based on the inhibition rate at different concentrations.
The inhibition effect of the present compound on pancreatic cancer tumor cell Mia Paca 2 proliferation activity was determined by the test, and the obtained IC50 value is shown in Table 2.

ERK-2 kinase = target: T2, ERK-2 kinase (Homo sapiens, UniProt P28482); experiment: Inhibition of ERK-2 kinase activity (LANCE Ultra TR-FRET); type: biochemical; conditions: ERK-2 enzyme 0.08 nM, ATP 38.15 μM
T2 construct: purchased Invitrogen PV3313
Experimental: as §1, with “ERK-2” for “ERK-1”, “ERK-2” for “ERK1”, “PV3313,” for “PV3311,”, “0.08” for “0.4”, “EGTA” for “EGTA,”, “IX” for “1×”

T2 sequence (P28482 whole entry): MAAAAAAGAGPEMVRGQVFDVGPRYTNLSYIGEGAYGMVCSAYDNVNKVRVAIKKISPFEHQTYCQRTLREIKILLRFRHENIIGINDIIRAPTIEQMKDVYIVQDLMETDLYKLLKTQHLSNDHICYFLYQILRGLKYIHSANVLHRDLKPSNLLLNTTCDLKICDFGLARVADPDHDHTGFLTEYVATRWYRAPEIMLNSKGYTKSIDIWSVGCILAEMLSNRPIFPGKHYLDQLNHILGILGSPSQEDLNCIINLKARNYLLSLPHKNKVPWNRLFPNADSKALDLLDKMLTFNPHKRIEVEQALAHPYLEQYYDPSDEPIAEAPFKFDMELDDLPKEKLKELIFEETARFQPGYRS
T1 sequence (P27361 whole entry): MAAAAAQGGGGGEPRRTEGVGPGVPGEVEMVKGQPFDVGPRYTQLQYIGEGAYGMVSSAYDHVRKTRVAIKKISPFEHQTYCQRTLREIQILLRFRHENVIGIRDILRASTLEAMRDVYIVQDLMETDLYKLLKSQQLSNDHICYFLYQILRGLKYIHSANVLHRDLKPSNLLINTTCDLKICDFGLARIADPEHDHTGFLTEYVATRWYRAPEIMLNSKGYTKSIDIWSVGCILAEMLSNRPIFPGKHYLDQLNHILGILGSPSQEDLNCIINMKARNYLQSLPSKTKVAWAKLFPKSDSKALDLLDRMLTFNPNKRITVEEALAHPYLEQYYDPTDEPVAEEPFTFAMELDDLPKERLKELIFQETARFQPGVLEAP

SMILES | IC50 (ERK-1 kinase) [nM] | IC50 [1] [nM] | IC50 (ERK-2 kinase) [nM]
C[C@@H](NC(=O)c1nc2cc3c(-c4ccncc4)n[nH]c3cc2[nH]1)c1cccc(F)c1 [Example 45, (R)—N-(1-(3-fluorophenyl)ethyl)-3-(pyridin-4-yl)-1,7-dihydroimidazo[4,5-f]indazole-6-carboxamide] | 0.54 | 110 | 0.5
C[C@@H](NC(=O)c1nc2cc3c(-c4ccncc4)n[nH]c3cc2[nH]1)c1cccc(Cl)c1 [Example 22, (R)—N-(1-(3-chlorophenyl)ethyl)-3-(pyridin-4-yl)-1,7-dihydroimidazo[4,5-f]indazole-6-carboxamide] | 0.26 | 99.4 | 0.17
Cc1cc(-c2n[nH]c3cc4[nH]c(C(=O)N[C@H](C)c5ccccc5)nc4cc23)ccn1 [Example 36, (R)-3-(2-methylpyridin-4-yl)-N-(1-phenylethyl)-1,7-dihydroimidazo[4,5-f]indazole-6-carboxamide] | 1.08 | 244 | 1.23
O=C(N[C@H](CO)c1cccc(Cl)c1)c1nc2cc3c(-c4ccncc4)n[nH]c3cc2[nH]1 [Example 28, (S)—N-(1-(3-chlorophenyl)-2-hydroxyethyl)-3-(pyridin-4-yl)-1,7-dihydroimidazo[4,5-f]indazole-6-carboxamide] | 0.1 | 202 | 0.1
CC(NC(=O)c1nc2cc3c(-c4ccncc4)n[nH]c3cc2[nH]1)c1ccccc1 (stereo not drawn) [Example 11, N-(1-phenylethyl)-3-(pyridin-4-yl)-1,7-dihydroimidazo[4,5-f]indazole-6-carboxamide] | 0.64 |  | 0.29
COc1cc(-c2n[nH]c3cc4[nH]c(C(=O)N[C@H](C)c5ccccc5)nc4cc23)ccn1 [Example 86, (R)-3-(2-methoxypyridin-4-yl)-N-(1-phenylethyl)-1,7-dihydroimidazo[4,5-f]indazole-6-carboxamide] | 2.4 |  | 1.33
O=C(c1nc2cc3c(-c4ccncc4)n[nH]c3cc2[nH]1)N1C[C@@H]1c1ccccc1 [Example 65, (S)-(2-Phenylaziridin-1-yl)(3-(pyridin-4-yl)-1,7-dihydroimidazo[4,5-f]indazol-6-yl)methanone] | 3.73 |  | 1.58
COc1ccc(-c2n[nH]c3cc4[nH]c(C(=O)N[C@H](C)c5ccccc5)nc4cc23)cn1 [Example 84, (R)-3-(6-methoxypyridin-3-yl)-N-(1-phenylethyl)-1,7-dihydroimidazo[4,5-f]indazole-6-carboxamide] | 2.61 |  | 0.93
COC[C@@H](NC(=O)c1nc2cc3c(-c4ccncc4)n[nH]c3cc2[nH]1)c1ccccc1 [Example 13, (S)—N-(2-methoxy-1-phenylethyl)-3-(pyridin-4-yl)-1,7-dihydroimidazo[4,5-f]indazole-6-carboxamide] | 3.01 |  | 1.39
C[C@@H](NC(=O)c1nc2cc3c(-c4ccncc4)n[nH]c3cc2[nH]1)c1ccc([N+](=O)[O-])cc1 [Example 14, (R)—N-(1-(4-nitrophenyl)ethyl)-3-(pyridin-4-yl)-1,7-dihydroimidazo[4,5-f]indazole-6-carboxamide] | 9.48 |  | 5.07
Cc1cccc(C(C)NC(=O)c2nc3cc4c(-c5ccncc5)n[nH]c4cc3[nH]2)n1 (stereo not drawn) [Example 44, N-(1-(6-methylpyridin-2-yl)ethyl)-3-(pyridin-4-yl)-1,7-dihydroimidazo[4,5-f]indazole-6-carboxamide] | 0.95 |  | 0.66
Cc1cccc([C@@H](C)NC(=O)c2nc3cc4c(-c5ccncc5)n[nH]c4cc3[nH]2)n1 [Example 47, (R)—N-(1-(6-methylpyridin-2-yl)ethyl)-3-(pyridin-4-yl)-1,7-dihydroimidazo[4,5-f]indazole-6-carboxamide] | 0.49 |  | 0.17
N#C[C@@H](NC(=O)c1nc2cc3c(-c4ccncc4)n[nH]c3cc2[nH]1)c1ccccc1 [Example 34, (S)—N-(cyano(phenyl)methyl)-3-(pyridin-4-yl)-1,7-dihydroimidazo[4,5-f]indazole-6-carboxamide] | 0.79 |  | 0.34
C[C@@H](NC(=O)c1nc2cc3c(-c4ccncc4)n[nH]c3cc2[nH]1)c1cccc(C(F)(F)F)c1 [Example 16, (R)-3-(pyridin-4-yl)-N-(1-(3-(trifluoromethyl)phenyl)ethyl)-1,7-dihydroimidazo[4,5-f]indazole-6-carboxamide] | 1 |  | 0.73
COC(CNC(=O)c1nc2cc3c(-c4ccncc4)n[nH]c3cc2[nH]1)c1ccccc1 (stereo not drawn) [Example 78, N-(2-methoxy-2-phenylethyl)-3-(pyridin-4-yl)-1,7-dihydroimidazo[4,5-f]indazole-6-carboxamide] | 0.65 |  | 0.21
C[C@@H](NC(=O)c1nc2cc3c(-c4ccncc4)n[nH]c3cc2[nH]1)c1cccc(C2CC2)c1 [Example 88, (R)—N-(1-(3-cyclopropylphenyl)ethyl)-3-(pyridin-4-yl)-1,7-dihydroimidazo[4,5-f]indazole-6-carboxamide] | 2.27 |  | 0.99
O=C(NNc1ccccc1)c1nc2cc3c(-c4ccncc4)n[nH]c3cc2[nH]1 [Example 76, N′-phenyl-3-(pyridin-4-yl)-1,7-dihydroimidazo[4,5-f]indazole-6-carbohydrazide] | 0.25 |  | 0.08
O=C(NC(CCO)c1ccccc1)c1nc2cc3c(-c4ccncc4)n[nH]c3cc2[nH]1 (stereo not drawn) [Example 71, N-(3-hydroxy-1-phenylpropyl)-3-(pyridin-4-yl)-1,7-dihydroimidazo[4,5-f]indazole-6-carboxamide] | 2.18 |  | 0.8
C[C@@H](OC(=O)c1nc2cc3c(-c4ccncc4)n[nH]c3cc2[nH]1)c1ccccc1 [Example 35, (R)-1-phenylethyl 3-(pyridin-4-yl)-1,7-dihydroimidazo[4,5-f]indazole-6-carboxylate] | 1.54 |  | 0.75
